Data on one compound can be found in US10723706B2, “Perk inhibitors and uses thereof in treating diseases associated with aggregation-prone proteins” (Ramot at Tel-Aviv University Ltd., priority 2016, dated 2020).

Data set [1] is described as follows: Pharmacokinetics and blood brain barrier penetration, LC/MS/MS. It counts as in vivo, mouse. The conditions noted are these: WT mice, 10 mg/kg IP. The method, then:
FIG. 5 Analysis of Pharmacokinetics (PK) and blood brain barrier (BBB) penetration was done in WT mice using a method based on LC/MS/MS.
Pharmacokinetics (PK) and blood brain barrier (BBB) penetration were analyzed in WT mice.

The subject of data set [2] is R6/2 transgenic mice. The data set is described as follows: Blood glucose levels in R6/2 HD model and WT mice. It counts as in vivo, mouse. The method, then:
Animals were treated for 4 weeks starting at 4 weeks of age with 1 mg/ml MK-28 or with vehicle (DMSO/PEG400 1:1), delivered using Alzet pumps. […] N=13 TG, 13 TG+MK28, 16 WT, 15 WT+MK28, 15 None.
The HD mouse model used was the R6/2 transgenic mice model B6CBA-R6/2 (CAG 160) Jackson Lab USA. R6/2 mice express only the exon 1 of the human Htt gene, including 150 CAG repeats driven by the human Htt promoter directly influencing the transgene expression levels and thereby the development of HD-like pathology. Out of all the existing mouse models of HD, the R6/2 mouse is one that develops symptoms the most rapidly and has the most widespread occurrence of Htt inclusions in the brain. Furthermore, these lines are the most widely used in therapeutic trials. In these animals, the initial signs of motor symptoms commence around 3 weeks of age. […] While R6/2 mice are initially hyperactive, they gradually reduce their motor activity and become hypoactive around 8 weeks of age. Their motor function and coordination progressively deteriorate, and can be detected as a reduction in the time they can stay on a rotating rod, the so-called Rotarod. […]
Alzet pumps were implanted at 4 weeks of age and MK-28 was administered at 1 mg/kg with continuous dosing for 28 days. […] Vocalization tests were also performed and survival was assessed. […]

In data set [3] the test system is betaTC-tet pancreatic islet beta-cell line. The data set is described as follows: Toxicity in pancreatic beta cells. It counts as cell-based, mouse. The method, then: MK-28 toxicity was tested in pancreatic beta cells, the type of cell that is most sensitive when ER stress response pathways are affected. A conditionally transformed mouse pancreatic islet beta-cell line (betaTC-tet), such as described by Efrat [Ann NY Acad Sci 1999, 875:286-293], was used. These cells produce high amounts of insulin, resulting in a high protein load in the ER, making them very sensitive to ER stress and other stimuli, such as cytokine effects. Compromising any of the UPR branches leads to cytotoxicity in these cells. MK-28 was compared to the ER stressor tunicamycin (Tun).

The next data set has as its system cells. The data set is described as follows: Intrinsic cytotoxicity on cells. In kind it is cell-based.
The test system of another data set is STHdhQ111/111 cells. The data set is described as follows: Rescue from UPR-induced cell death (tunicamycin), PI cell cycle FACS, sub-G0/G1 fraction. In kind it is cell-based. The method, then:
STHdhQ7/7 and STHdhQ111/111 cells were grown as described in Leitman et al. [PLoS One 2014, 9(3):e90803].
After the indicated treatment times in full medium or in DMEM without serum, cells were incubated with propidium iodide (PI) solution ([…]) and read by flow cytometry as described in Leitman et al. [PLoS One 2014, 9(3):e90803]. Cells in sub-G0/G1 were counted as apoptotic/dead cells.
The activity of the novel inhibitors, compared to A4, in preventing cytotoxicity induced by pathogenic Htt, was then tested. A stable murine striatal cell line expressing full-length polyQ-expanded Htt, STHdhQ^111/111, was used.

A short description of data set [4]: Weight evaluation after pump implantation. In kind it is in vivo, mouse. Particulars: TG and WT mice, 7 weeks after pump implantation, 1 mg/kg for 28 days. The method, then: For the therapeutic assessment of MK-28 delivery, Alzet pumps model 1004, with a rate of 0.11 μl/hour and 28 days compound delivery were used. Five groups of mice were studied: (1) Transgenic (TG) treated with MK-28, (2) TG without treatment (pumps with vehicle), (3) Wild-type (WT) treated with MK-28, (4) WT without treatment (pumps with vehicle), (5) WT without pumps.
(§1) Alzet pumps were implanted at 4 weeks of age and MK-28 was administered at 1 mg/kg with continuous dosing for 28 days. This concentration is in a typical clinical dose range. The mice's motor function and coordination were tested by Rotarod, and limb clasping, ledge, gait and kyphosis were also tested. Vocalization tests were also performed and survival was assessed. Tests were performed in two independent blind experiments.

Data set [5] relates to R6/2 transgenic mice. The data set is described as follows: Combined motor phenotype (ledge, clasping, gait, kyphosis) in R6/2 mice. It counts as in vivo, mouse. The text has this:
Hind-limb clasping behavior was scored on a scale from 0 to 3: 0=normal; 1=clasps hind limbs within 30 seconds of being suspended in the air; 2=clasps hind limbs within 5 seconds but recovers quickly when released after 30 seconds; 3=clasps hind limbs within 5 seconds and has difficulty recovering when released after 30 seconds.
The ledge test is a direct measure of coordination. Mice were lifted from the cage and placed on the cage's ledge. Mice will typically walk along the ledge and attempt to descend back into the cage. Walking along the ledge without losing its balance is assigned a score of 0. If the mouse loses its footing while walking along the ledge, it receives a score of 1. […] If it falls off the ledge, or nearly so, while walking or attempting to lower itself, or shakes and refuses to move at all despite encouragement, it receives a score of 3.
Gait is a measure of coordination and muscle function. […]
In parallel to the Rotarod analysis motor function and disease severity were evaluated using a simple composite phenotype that includes the combined analysis of hind limb clasping, ledge walk, gait and kyphosis [Guyenet et al., J Vis Exp 2010, (39):1787]. This test has the ability to effectively discriminate between affected and non-affected individuals, while also quantifying the temporal progression of neurodegenerative disease phenotypes such as HD.

In data set [6] the test system is R6/2 transgenic mice. The data set is described as follows: Ultrasonic vocalization of R6/2 mice. In kind it is in vivo, mouse. The method, then: Mice were treated as described in FIGS. 7 and 8. Transgenic mice receiving (MK-28 TG+) or vehicle (TG) were analyzed for vocalization as number of syllables in 5 minutes intervals. (n=3-4, p=0.059).
as §1
Vocalization was evaluated, as it reflects motor and cognitive abilities.

The structures appear in SMILES notation. Entries after “also recorded” stand apart in the source; their conditions may differ.

As to `CN(/N=C\c1ccc(O)c(O)c1)c1nc(-c2ccccc2)cc(-c2ccccc2)n1` [Compound 3, 2-{N-methyl-N′-(3,4-dihydroxybenzylidene)hydrazinyl}-4,6-diphenylpyrimidine], in data set [1] (brain), the “BBB penetration, peak brain concentration” value was 57 ng/mL; the T1/2 in brain is 80 min; the “time of peak brain concentration” value is 40 min. In addition, in data set [1] (plasma), the T1/2 in plasma was 30 min, the peak plasma concentration was 105 ng/mL and the “time of peak plasma concentration” value was 40 min. Besides, the Kp at 40 minutes in data set [1] (mouse, brain, read-out: BBB penetration peak as percent of the concentration in plasma) is more than 0.5. Also, the “blood glucose levels in TG mice” value with R6/2 transgenic mice [2] (R6/2 TG mice, 4 weeks treatment by Alzet pump from 4 weeks of age) was “reduced”. Besides, the “blood glucose levels in WT mice” value in the data set on R6/2 transgenic mice [2] (WT mice, 4 weeks treatment by Alzet pump, listed as MK-28) is “no effect; also recorded: did not affect glucose levels”. For the same compound, in data set [3], the “toxicity in pancreatic beta cells” value is recorded as “very low toxicity”. In addition, in the data set on cells, the “intrinsic cytotoxicity on cells” value is reported as “neither MPGL1 nor MK-28 exhibited intrinsic cytotoxicity”. Moreover, in the data set with STHdhQ111/111 cells (Tun for 48 hours), the “rescue from UPR-induced cell death (cytotoxicity)” value was “significantly more potent than A4”. Besides, in the data set on STHdhQ111/111 cells (additional ER stress caused by tunicamycin), the “fold lower IC50 than A4 for inhibition of cytotoxicity” value is recorded as more than 3 fold. In addition, the weight versus vehicle result in data set [4] is listed as “no significant differences”. Also, in the data set with R6/2 transgenic mice [5] (R6/2 TG mice, from week 6 after pump implantation, p<0.05, listed as MK-28), the “combined phenotype score of TG mice versus untreated TG” value is on record as “lower scores; also recorded: significant improvement”. In the data set with R6/2 transgenic mice [5] (WT mice, p>0.05), the “combined phenotype of WT mice” value is “no detrimental effect”. Also, in the data set with R6/2 transgenic mice [6] (R6/2 TG mice treated with MK-28, n=3-4, p=0.059), the “vocalization, number of syllables” value turned out to be 13.75 syllables in 5 minutes. Also, in the data set on R6/2 transgenic mice [6] (R6/2 TG mice, listed as MK-28), the “vocalization effect versus untreated R6/2” value is recorded as “three fold difference; also recorded: improved”.
